Results: the supplement of paper PMC10599287

Assays:
[1] = compound: CCNC(=O)C#Cc1ccc2c(C(=Nc3ccc(CN(C)C)cc3)c3ccccc3)c(O)[nH]c2c1; assay: absolute IC70 (antiproliferative, propidium iodide); higher = less potent; details: exposure time: 4 days
Method: (§1)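 Modified propidium iodide survival/proliferation assay in 294 human tumor cell lines (2D monolayer for solid tumors, suspension for hematologic lines) after 4 days of continuous exposure to 10 concentrations in half-log steps from 0.001 to 30 µM. Absolute IC70 was fitted by four-parameter nonlinear regression of T/C × 100 (%) values; 30 µM is the top dose.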

[2] = compound: O=C(NOCCO)c1ccc2cncn2c1Nc1ccc(I)cc1F [GDC-0623]; assay: as above; details: exposure time: 4 days
Method: as §1

Test System: UO-31
- absolute IC70 [1]: 527 nM
- absolute IC70 [2]: 1620 nM

Test System: SNU-899
- absolute IC70 [1]: 515 nM
- absolute IC70 [2]: 35 nM

Test System: THP-1
- absolute IC70 [1]: 84 nM
- absolute IC70 [2]: 47 nM

Test System: CCRF-CEM-VCR
- absolute IC70 [1]: 73 nM
- absolute IC70 [2]: > 30000 nM

Test System: MEXF_1829
- absolute IC70 [1]: 90 nM
- absolute IC70 [2]: 19 nM

Test System: A172
- absolute IC70 [1]: 252 nM
- absolute IC70 [2]: 1590 nM

Test System: KYSE-70
- absolute IC70 [1]: 1040 nM
- absolute IC70 [2]: > 30000 nM

Test System: SN12C
- absolute IC70 [1]: 665 nM
- absolute IC70 [2]: 2960 nM

Test System: MEXF_462
- absolute IC70 [1]: 25 nM
- absolute IC70 [2]: 7170 nM

Test System: CNXF_498
- absolute IC70 [1]: 5620 nM
- absolute IC70 [2]: > 30000 nM

Test System: LXFL_1072
- absolute IC70 [1]: 481 nM
- absolute IC70 [2]: 16200 nM

Test System: GXF_1172
- absolute IC70 [1]: 510 nM
- absolute IC70 [2]: 1270 nM

Test System: SU-DHL-1
- absolute IC70 [1]: 406 nM
- absolute IC70 [2]: > 30000 nM

Test System: UOC-M1
- absolute IC70 [1]: 12 nM
- absolute IC70 [2]: > 30000 nM

Test System: SW1710
- absolute IC70 [1]: 525 nM
- absolute IC70 [2]: 3740 nM

Test System: NCI-H929
- absolute IC70 [1]: 43 nM
- absolute IC70 [2]: 10 nM

Test System: K-562
- absolute IC70 [1]: 2820 nM
- absolute IC70 [2]: > 30000 nM

Test System: SW620
- absolute IC70 [1]: 69 nM
- absolute IC70 [2]: 10 nM

Test System: MEXF_276
- absolute IC70 [1]: 38 nM
- absolute IC70 [2]: 8 nM

Test System: RD-ES
- absolute IC70 [1]: 77 nM
- absolute IC70 [2]: > 30000 nM

Test System: LXFA_1647
- absolute IC70 [1]: 248 nM
- absolute IC70 [2]: 221 nM

Test System: OVCAR-3
- absolute IC70 [1]: 26100 nM
- absolute IC70 [2]: > 30000 nM

Test System: DAUDI
- absolute IC70 [1]: 10 nM
- absolute IC70 [2]: > 30000 nM

Test System: COLO-741
- absolute IC70 [1]: 524 nM
- absolute IC70 [2]: 38.9 nM

Test System: RCH-ACV
- absolute IC70 [1]: 6 nM
- absolute IC70 [2]: > 30000 nM

Test System: HUP-T3
- absolute IC70 [1]: 291 nM
- absolute IC70 [2]: 44 nM

Test System: HCT116
- absolute IC70 [1]: 51 nM
- absolute IC70 [2]: 84 nM

Test System: LIM2405
- absolute IC70 [1]: 31.6 nM
- absolute IC70 [2]: 5.96 nM

Test System: CAL-27
- absolute IC70 [1]: 250 nM
- absolute IC70 [2]: 14 nM

Test System: RXF_486
- absolute IC70 [1]: 816 nM
- absolute IC70 [2]: 239 nM

Test System: MOLM-13
- absolute IC70 [1]: 8 nM
- absolute IC70 [2]: 448 nM

Test System: OCI-AML3
- absolute IC70 [1]: 6 nM
- absolute IC70 [2]: < 1 nM

Test System: LOVO
- absolute IC70 [1]: 3680 nM
- absolute IC70 [2]: > 30000 nM

Test System: FADU
- absolute IC70 [1]: 2260 nM
- absolute IC70 [2]: > 30000 nM

Test System: MOLM-1
- absolute IC70 [1]: 1590 nM
- absolute IC70 [2]: > 30000 nM

Test System: SK-OV-3
- absolute IC70 [1]: 13400 nM
- absolute IC70 [2]: > 30000 nM

Test System: PAXF_546
- absolute IC70 [1]: 12200 nM
- absolute IC70 [2]: > 30000 nM

Test System: PANC-1
- absolute IC70 [1]: 5080 nM
- absolute IC70 [2]: > 30000 nM

Test System: GXA_3023
- absolute IC70 [1]: 69 nM
- absolute IC70 [2]: 1440 nM

Test System: MEXF_535
- absolute IC70 [1]: 99 nM
- absolute IC70 [2]: 5 nM

Test System: A2780
- absolute IC70 [1]: 546 nM
- absolute IC70 [2]: 24400 nM

Test System: MM.1R
- absolute IC70 [1]: 23 nM
- absolute IC70 [2]: > 30000 nM

Test System: FU97
- absolute IC70 [1]: 6600 nM
- absolute IC70 [2]: > 30000 nM

Test System: TT2609-C02
- absolute IC70 [1]: 18 nM
- absolute IC70 [2]: 12 nM

Test System: GXA_3067
- absolute IC70 [1]: 583 nM
- absolute IC70 [2]: 265 nM

Test System: DIFI
- absolute IC70 [1]: 91 nM
- absolute IC70 [2]: 522 nM

Test System: MKN45
- absolute IC70 [1]: 489 nM
- absolute IC70 [2]: 79 nM

Test System: LXFE_66
- absolute IC70 [1]: 3910 nM
- absolute IC70 [2]: > 30000 nM

Test System: MEXF_1792
- absolute IC70 [1]: 462 nM
- absolute IC70 [2]: 169 nM

Test System: BXF_1352
- absolute IC70 [1]: 45 nM
- absolute IC70 [2]: 11 nM

Test System: LEXFAM_2531
- absolute IC70 [1]: 26 nM
- absolute IC70 [2]: > 30000 nM

Test System: SW403
- absolute IC70 [1]: 841 nM
- absolute IC70 [2]: 7.71 nM

Test System: TE671
- absolute IC70 [1]: 1360 nM
- absolute IC70 [2]: > 30000 nM

Test System: MV4-11
- absolute IC70 [1]: 8 nM
- absolute IC70 [2]: 1320 nM

Test System: RXF_2516
- absolute IC70 [1]: 164 nM
- absolute IC70 [2]: 8070 nM

Test System: MEXF_1341
- absolute IC70 [1]: 482 nM
- absolute IC70 [2]: 26 nM

Test System: PA-TU-8902
- absolute IC70 [1]: 913 nM
- absolute IC70 [2]: > 30000 nM

Test System: SK-GT-2
- absolute IC70 [1]: 2800 nM
- absolute IC70 [2]: > 30000 nM

Test System: Caco-2
- absolute IC70 [1]: 4760 nM
- absolute IC70 [2]: > 30000 nM

Test System: SD1
- absolute IC70 [1]: 4 nM
- absolute IC70 [2]: > 30000 nM

Test System: MAXF_401
- absolute IC70 [1]: 28 nM
- absolute IC70 [2]: 730 nM

Test System: RH-41
- absolute IC70 [1]: 606 nM
- absolute IC70 [2]: > 30000 nM

Test System: SK-LMS-1
- absolute IC70 [1]: 937 nM
- absolute IC70 [2]: 368 nM

Test System: NOMO-1
- absolute IC70 [1]: 10 nM
- absolute IC70 [2]: > 30000 nM

Test System: U-2197
- absolute IC70 [1]: 2770 nM
- absolute IC70 [2]: > 30000 nM

Test System: RXF_1183
- absolute IC70 [1]: 949 nM
- absolute IC70 [2]: 102 nM

Test System: LS174T
- absolute IC70 [1]: 40.4 nM
- absolute IC70 [2]: 72.3 nM

Test System: LN-229
- absolute IC70 [1]: 281 nM
- absolute IC70 [2]: 102 nM

Test System: DND-39
- absolute IC70 [1]: 72 nM
- absolute IC70 [2]: > 30000 nM

Test System: Hep-G2
- absolute IC70 [1]: 55 nM
- absolute IC70 [2]: 16500 nM

Test System: JIMT-1
- absolute IC70 [1]: 1900 nM
- absolute IC70 [2]: > 30000 nM

Test System: LIM2551
- absolute IC70 [1]: 7.49 nM
- absolute IC70 [2]: 3.68 nM

Test System: A427
- absolute IC70 [1]: 283 nM
- absolute IC70 [2]: > 30000 nM

Test System: 22RV1
- absolute IC70 [1]: 616 nM
- absolute IC70 [2]: > 30000 nM

Test System: MINO
- absolute IC70 [1]: 10 nM
- absolute IC70 [2]: > 30000 nM

Test System: MOLM-6
- absolute IC70 [1]: 9 nM
- absolute IC70 [2]: 41 nM

Test System: SNU-449
- absolute IC70 [1]: 3200 nM
- absolute IC70 [2]: 2220 nM

Test System: RPMI-8226
- absolute IC70 [1]: 1580 nM
- absolute IC70 [2]: > 30000 nM

Test System: SISO
- absolute IC70 [1]: 715 nM
- absolute IC70 [2]: > 30000 nM

Test System: MEXF_394
- absolute IC70 [1]: 42 nM
- absolute IC70 [2]: 4 nM

Test System: OPM-2
- absolute IC70 [1]: 336 nM
- absolute IC70 [2]: > 30000 nM

Test System: GXF_251
- absolute IC70 [1]: 944 nM
- absolute IC70 [2]: 3340 nM

Test System: IM-9
- absolute IC70 [1]: 7 nM
- absolute IC70 [2]: 15 nM

Test System: SF295
- absolute IC70 [1]: 8840 nM
- absolute IC70 [2]: > 30000 nM

Test System: KM20L2
- absolute IC70 [1]: 186 nM
- absolute IC70 [2]: 51.8 nM

Test System: EFE-184
- absolute IC70 [1]: 3950 nM
- absolute IC70 [2]: > 30000 nM

Test System: LOU-NH91
- absolute IC70 [1]: 2140 nM
- absolute IC70 [2]: > 30000 nM

Test System: OVCAR-8
- absolute IC70 [1]: 2800 nM
- absolute IC70 [2]: > 30000 nM

Test System: CXF_94
- absolute IC70 [1]: 554 nM
- absolute IC70 [2]: 167 nM

Test System: KYSE-520
- absolute IC70 [1]: 525 nM
- absolute IC70 [2]: 158 nM

Test System: BXF_1228
- absolute IC70 [1]: 3230 nM
- absolute IC70 [2]: > 30000 nM

Test System: RXF_1781
- absolute IC70 [1]: 309 nM
- absolute IC70 [2]: 7380 nM

Test System: MEXF_1539
- absolute IC70 [1]: 39 nM
- absolute IC70 [2]: 3 nM

Test System: KLE
- absolute IC70 [1]: 5420 nM
- absolute IC70 [2]: > 30000 nM

Test System: CXF_1103
- absolute IC70 [1]: 11 nM
- absolute IC70 [2]: 427 nM

Test System: LXFA_289
- absolute IC70 [1]: 1790 nM
- absolute IC70 [2]: > 30000 nM

Test System: SU-DHL-4
- absolute IC70 [1]: 220 nM
- absolute IC70 [2]: > 30000 nM

Test System: SW480
- absolute IC70 [1]: 101 nM
- absolute IC70 [2]: 23.9 nM

Test System: GXA_3011
- absolute IC70 [1]: 97 nM
- absolute IC70 [2]: > 30000 nM

Test System: PAXF_1986
- absolute IC70 [1]: 414 nM
- absolute IC70 [2]: 92 nM

Test System: M059K
- absolute IC70 [1]: 1150 nM
- absolute IC70 [2]: > 30000 nM

Test System: MCF7
- absolute IC70 [1]: 281 nM
- absolute IC70 [2]: > 30000 nM

Test System: NCI-H345
- absolute IC70 [1]: 11800 nM
- absolute IC70 [2]: > 30000 nM
